Laboratory results taken from patent publication US9682028B2, “Personal care photoprotective compositions with tricyclodecane amides” (Conopco, Inc., priority 2013, dated 2017).
Where two headings read alike, the source gives them in different places.

Legend:
human sebocytes = assay: Sebocyte assay (sebum suppression, 14C-acetate incorporation); assay type: cell-based; conditions: for inhibition at 10 µM: read-out: % Reduction at 10 microMolar; for inhibition at 100 µM: read-out: % Reduction at 100 microMolar
Experimental: Sebum suppression effect of the tricyclodecane amides suitable for use in the present invention was investigated.
Secondary cultures of human sebocytes obtained from an adult […] were grown in 96-well tissue culture plates (Packard) until three days post-confluence. Sebocyte growth medium consisted of Clonetics Keratinocyte Basal Medium (KBM) supplemented with 14 μg/ml bovine pituitary extract, 0.4 μg/ml hydrocortisone, 5 μg/ml insulin, 10 ng/ml epidermal growth factor, 1.2×10^−10 M cholera toxin, 100 units/ml penicillin, and 100 μg/ml streptomycin. All cultures were incubated at 37° C. in the presence of 5% CO2. Medium was changed three times per week.
On the day of experimentation, the growth medium was removed and the sebocytes washed three times with sterile Dulbecco's Modified Eagle Medium (DMEM; phenol red free). Fresh DMEM was added to each sample (triplicates) with 5-microliters of test agent solubilized in ethanol. Controls consisted of addition ethanol alone. Each plate was returned to the incubator for 20-hours followed by the addition of ^14C-acetate buffer (5 mM final concentration, 56 mCi/mmol specific activity). Sebocytes were returned to the incubator for 4-hours after which each culture was rinsed 3-times with phosphate buffered saline to remove unbound label. Radioactive label remaining in the sebocytes was determined using a Packard Microbeta, scintillation counter. Phenol Red, a known sebum suppressive agent, was employed as a positive control.

[1] = In vitro SPF evaluation (Optometric 290S SPF meter, PMMA plate); assay type: physicochemical; conditions: summary of Table 2
Experimental: SPF, UV-A, and UV-B improvement of compositions within the scope of the invention was investigated.
In vitro SPF measurement was done using the Optometric 290S SPF meter. The product was applied at a dosage of 2 mg/cm^2 on PMMA (polymethylmethacrylate) plate (7 cm×7 cm) and allowed to air dry for 30 minutes. The average SPF value was obtained from 6 SPF readings per plate. Two duplicated runs, the standard deviation from the average was ±2 SPF units. % increase of in vitro SPF versus control calculation: (measured SPF for selected formulation−measured SPF of control)/measured SPF of control×100.

[2] = In vitro MPF evaluation (monochromatic protection factor); assay type: physicochemical; conditions: summary of Table 4
Experimental: MPF=monochromatic protection factor=1/Transmittance at a specific wavelength (lower transmittance gives higher MPF therefore higher absorption for the sunscreen). 305 nm=UVB, 360 nm=UVA. MPF was measured using the same apparatus as SPF above. MPF % increase over control (measured MPF at 305 nm and 360 nm for selected formulation−measured MPF at 305 nm and 360 nm of control)/measured MPF at 305 nm and 360 nm of control×100.

[3] = 10 microMolar test agent, 20 h incubation then 4 h 14C-acetate, radioactive label remaining in sebocytes
[4] = 100 microMolar test agent, 20 h incubation then 4 h 14C-acetate, radioactive label remaining in sebocytes

Structure (SMILES) | inhibition at 10 µM (human sebocytes; [3]) [%] | inhibition at 100 µM (human sebocytes; [4]) [%] | also measured
O=C(N1CCOCC1)C12CC3CC(CC(C3)C1)C2 [Compound C1, Methanone, (morphonyl)tricyclo[3.3.1.1^3,7]dec-1-yl-] | 35.4 | 78.5 | –
O=C(N1CCCCC1)C12CC3CC(CC(C3)C1)C2 [Compound C2, Methanone, (piperidiny)tricyclo[3.3.1.1^3,7]dec-1-yl-] | 34.3 | 51.6 | –
O=C(N1CCC1)C12CC3CC(CC(C3)C1)C2 [Compound C4, Methanone, (azetidinyl)tricyclo[3.3.1.1^3,7]dec-1-yl-] | – | – | inhibition at 10 µM (human sebocytes): 16.3%; inhibition at 100 µM (human sebocytes): 27.9%
O=C(N1CCCCCC1)C12CC3CC(CC(C3)C1)C2 [Compound C5, Methanone, (hexahydroazepinyl)tricyclo[3.3.1.1^3,7]dec-1-yl-] | 32.4 | 50.5 | –
N#CC1CCN(C(=O)C23CC4CC(CC(C4)C2)C3)CC1 [Compound C6, Methanone, (4-cyano-piperidinyl)tricyclo[3.3.1.1^3,7]dec-1-yl] | 24.8 | 39.4 | –
NC(=O)C1CCN(C(=O)C23CC4CC(CC(C4)C2)C3)CC1 [Compound C7, Methanone, (4-amido-piperidinyl)tricyclo[3.3.1.1^3,7]dec-1-yl-] | 58.9 | 73.4 | –
O=C(NC12CC3CC(CC(C3)C1)C2)C12CC3CC(CC(C3)C1)C2 [Compound C8, Methanone, (Tricyclo[3.3.1.1^3,7]decanyl)-N-tricyclo[3.3.1.1^3,7]dec-1-yl-] | 19.1 | 58.8 | –
O=C(N1CCC2CCCCC2C1)C12CC3CC(CC(C3)C1)C2 (stereo not drawn) [Compound C9, Methanone, (decahydroisoquinolinyl)tricyclo[3.3.1.1^3,7]dec-1-yl-] | 81.2 | 86.8 | –
O=C(N1CCCC2CCCCC21)C12CC3CC(CC(C3)C1)C2 (stereo not drawn) [Compound C10, Methanone, (decahydroquinolinyl)tricyclo[3.3.1.1^3,7]dec-1-yl-] | 63.4 | 89.6 | –
CC1(C)CCCN(C(=O)C23CC4CC(CC(C4)C2)C3)C1 [Compound C11, Methanone, (3,3-dimethyl-1-piperidinyl)tricyclo[3.3.1.1^3,7]dec-1-yl] | 39.3 | 76.6 | –
CC1CCCCN1C(=O)C12CC3CC(CC(C3)C1)C2 (stereo not drawn) [Compound C12, Methanone, (2-methyl-1-piperidinyl)tricyclo[3.3.1.1^3,7]dec-1-yl-] | – | – | inhibition at 10 µM (human sebocytes): 24.5%; inhibition at 100 µM (human sebocytes): 51%
CC1CCN(C(=O)C23CC4CC(CC(C4)C2)C3)CC1 [Compound C13, Methanone, (4-methyl-1-piperidinyl)tricyclo[3.3.1.1^3,7]dec-1-yl] | 63.5 | 90.4 | –
CC1CCCN(C(=O)C23CC4CC(CC(C4)C2)C3)C1 (stereo not drawn) [Compound C14, Methanone, (3-methyl-1-piperidinyl)tricyclo[3.3.1.1^3,7]dec-1-yl] | – | – | inhibition at 10 µM (human sebocytes): 52.8%; inhibition at 100 µM (human sebocytes): 76%
CC1CC(C)CN(C(=O)C23CC4CC(CC(C4)C2)C3)C1 (stereo not drawn) [Compound C15, Methanone, (3,5-dimethyl-1-piperidinyl)tricyclo[3.3.1.1^3,7]dec-1-yl-] | 40.1 | 71 | –
CCC1(C)CCN(C(=O)C23CC4CC(CC(C4)C2)C3)CC1 [Compound C16, Methanone, (4-methyl-4-ethy-piperidinyl)tricyclo[3.3.1.1^3,7]dec-1-yl-] | 49.8 | 80.7 | –
CCC1(CC)CCN(C(=O)C23CC4CC(CC(C4)C2)C3)C1 [Compound C17, Methanone, (3,3-diethyl-pyrrolidinyl)tricyclo[3.3.1.1^3,7]dec-1-yl-] | 32.2 | 65.2 | –
CC(C)N(C(=O)C12CC3CC(CC(C3)C1)C2)C(C)C [Compound C18, Methanone, (N,N-diisopropyl)tricyclo[3.3.1.1^3,7]dec-1-yl-] | – | – | inhibition at 10 µM (human sebocytes): 42%; inhibition at 100 µM (human sebocytes): 52.5%
CC(C)(C)CCNC(=O)C12CC3CC(CC(C3)C1)C2 [Compound C19, Methanone, (3,3-dimethylbutylaminyl)tricyclo[3.3.1.1^3,7]dec-1-yl-] | 35.9 | – | –
CC(C)(C)CNC(=O)C12CC3CC(CC(C3)C1)C2 [Compound C20, Methanone, (2,2-dimethylpropylaminyl)tricyclo[3.3.1.1^3,7]dec-1-yl-] | 49.5 | 82.8 | –
CC(C)(C)CC(C)(C)NC(=O)C12CC3CC(CC(C3)C1)C2 [Compound C21, Methanone, (1,1-dimethyl-3,3-dimethylbutylaminyl)tricyclo[3.3.1.1^3,7]dec-1-yl-] | 26.4 | 43.5 | –
CC(C)CC(C)NC(=O)C12CC3CC(CC(C3)C1)C2 (stereo not drawn) [Compound C22, Methanone, (1,3-dimethyl-butylaminyl)tricyclo[3.3.1.1^3,7]dec-1-yl-] | – | – | inhibition at 10 µM (human sebocytes): 29.1%; inhibition at 100 µM (human sebocytes): 45.3%
O=S1(=O)OC(c2ccc(O)cc2)(c2ccc(O)cc2)c2ccccc21 [Phenol Red, reference compound] | 17.1 | 65.1 | –
CCCCCCCCCCCCCCCCCC(N)=O [octadecanamide] | – | – | SPF protection improvement (in words) [1]: did not achieve these improvements; UV-A and UV-B protection improvement (in words) [2]: did not achieve these improvements
